According to the supplement of paper PMC10307832:

Legend:
Test in all cases: relative viability (nuclei count vs DMSO), 5 days (fraction); higher = more cells survive
[1] = compound: C(C(=O)C(=O)O)Br [Bromopyruvate] + CS(=O)(=O)CCNCc1ccc(-c2ccc3ncnc(Nc4ccc(OCc5cccc(F)c5)c(Cl)c4)c3c2)o1 [Lapatinib] (partner 2 µM)
How it was run: (§1)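 Relative viability equals treated-well nuclei counts divided by vehicle-well nuclei counts. Counts came from 4× images of lung cancer cell lines grown in 1536-well plates for 5 days after pin-tool dosing on the day after seeding. Dosing used one drug alone or a fixed anchor-drug dose plus five library-drug doses (not always all listed) in √10 steps, and values are medians of duplicate plates.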

[2] = compound: C(C(=O)C(=O)O)Br [Bromopyruvate] + Cc1nc(Nc2ncc(C(=O)Nc3c(C)cccc3Cl)s2)cc(N2CCN(CCO)CC2)n1 [Dasatinib] (partner 0.075 µM)
How it was run: as §1

Bicalutamide + Olaparib = compound: CC(O)(CS(=O)(=O)c1ccc(F)cc1)C(=O)Nc1ccc(C#N)c(C(F)(F)F)c1 [Bicalutamide] + O=C(c1cc(Cc2n[nH]c(=O)c3ccccc23)ccc1F)N1CCN(C(=O)C2CC2)CC1 [Olaparib] (partner 8 µM)
How it was run: as §1

[3] = compound: CC(O)(CS(=O)(=O)c1ccc(F)cc1)C(=O)Nc1ccc(C#N)c(C(F)(F)F)c1 [Bicalutamide] + C[C@@H](Oc1cc(-c2cnn(C3CCNCC3)c2)cnc1N)c1c(Cl)ccc(F)c1Cl [Crizotinib] (partner 1 µM)
How it was run: as §1

Cell Line	relative viability ([1]; first compound 1 µM)	relative viability ([1]; first compound 3.162 µM)	relative viability ([1]; first compound 10 µM)	relative viability ([1]; first compound 31.62 µM)	relative viability ([1]; first compound 100 µM)	relative viability ([2]; first compound 1 µM)	relative viability ([2]; first compound 3.162 µM)	relative viability ([2]; first compound 10 µM)	relative viability ([2]; first compound 31.62 µM)	relative viability ([2]; first compound 100 µM)	relative viability (Bicalutamide + Olaparib; first compound 0.08 µM)	relative viability (Bicalutamide + Olaparib; first compound 0.253 µM)	relative viability (Bicalutamide + Olaparib; first compound 0.8 µM)	relative viability (Bicalutamide + Olaparib; first compound 2.53 µM)	relative viability ([3]; first compound 0.08 µM)	relative viability ([3]; first compound 0.253 µM)	relative viability ([3]; first compound 0.8 µM)	relative viability ([3]; first compound 2.53 µM)
201T	1.03	1.06	1.03	0.942	1.02	0.585	0.575	0.613	0.574	0.657	0.881	0.885	0.846	0.877	1.04	0.942	1.01	1.06
A549	1.03	1.05	1.14	1.08	1	–	–	–	–	–	0.355	0.353	0.42	0.302	0.738	0.708	0.917	0.485
A-427	1.08	1.03	1.01	1.03	1.04	0.733	0.688	0.685	0.669	0.685	0.704	0.692	0.842	0.707	0.934	0.967	0.915	0.804
ABC-1	1.34	1.24	1.36	1.13	1.18	0.692	0.492	0.62	0.584	0.348	0.815	0.975	1.21	1.01	1.15	1.09	1.16	0.848
BEN	0.617	0.649	0.744	0.777	0.649	0.367	0.297	0.354	0.26	0.379	1.1	1.15	1.26	1.06	0.773	0.778	1.14	0.866
CAL-12T	0.669	0.698	0.794	0.748	0.902	0.488	0.341	0.409	0.539	0.392	0.753	0.711	0.769	0.63	0.785	0.556	0.67	0.396
COR-L23	0.744	0.869	1.43	0.846	0.87	0.604	0.514	0.631	0.449	0.13	0.319	0.309	0.294	0.293	0.678	0.552	0.703	0.449
COR-L 105	0.393	0.385	0.362	0.353	0.392	0.336	0.36	0.294	0.319	0.195	0.847	0.777	0.632	0.662	0.874	0.728	0.661	0.448
Calu-6	1.04	1.15	1.08	1.06	0.856	–	–	–	–	–	0.667	0.52	0.586	0.604	0.865	0.795	0.914	0.727
ChaGo-K-1	–	–	–	–	–	0.59	0.607	0.604	0.586	0.589	0.4	0.423	0.466	0.446	1.27	1.1	1.16	1.03
EBC-1	0.225	0.21	0.226	0.205	0.221	–	–	–	–	–	0.707	0.638	0.746	0.654	0.166	0.185	0.186	0.185
EKVX	0.218	0.213	0.343	0.207	0.211	0.433	0.547	0.578	0.689	0.628	0.917	0.861	1	0.79	0.924	0.81	1.14	0.801
EMC-BAC-2	0.832	0.922	1	0.833	0.912	0.317	0.34	0.449	0.297	0.334	0.528	0.462	0.494	0.397	0.781	0.716	0.904	0.586
EPLC-272H	1.02	1.06	0.839	0.916	1.05	0.354	0.309	0.462	0.374	0.455	0.791	0.699	0.695	0.682	0.947	0.898	1.01	0.833
H3255	0.272	0.321	0.239	0.249	0.273	0.422	0.361	0.347	0.344	0.488	0.564	0.558	0.554	0.551	0.963	0.845	1.05	0.719
HARA	0.825	0.829	0.707	0.9	0.844	0.216	0.297	0.241	0.282	0.362	0.871	–	1.22	0.878	0.946	1.07	1.19	1.09
HCC-15	0.868	0.873	0.849	0.856	0.844	0.654	0.633	0.606	0.744	0.541	0.77	0.685	0.769	0.657	0.82	0.767	1.01	0.882
HCC-44	0.959	1.02	1.11	1.1	1.02	–	–	–	–	–	1.01	1.02	1.02	1.01	0.838	0.817	0.832	0.968
HCC-78	1.04	0.893	0.702	1.03	0.591	0.342	0.409	0.381	0.274	0.305	0.709	0.651	0.889	0.766	0.355	0.362	0.37	0.319
